Target: Phosphatidylinositol 4,5-bisphosphate 3-kinase catalytic subunit alpha isoform (Homo sapiens, UniProt P42336)
Assay: Inhibition of recombinant PI3K alpha (unknown origin) using PIP2 as substrate by fluorescence polarization assay
Details: read-out: Ki(app)

Sequence of Phosphatidylinositol 4,5-bisphosphate 3-kinase catalytic subunit alpha isoform (P42336 whole entry, canonical isoform): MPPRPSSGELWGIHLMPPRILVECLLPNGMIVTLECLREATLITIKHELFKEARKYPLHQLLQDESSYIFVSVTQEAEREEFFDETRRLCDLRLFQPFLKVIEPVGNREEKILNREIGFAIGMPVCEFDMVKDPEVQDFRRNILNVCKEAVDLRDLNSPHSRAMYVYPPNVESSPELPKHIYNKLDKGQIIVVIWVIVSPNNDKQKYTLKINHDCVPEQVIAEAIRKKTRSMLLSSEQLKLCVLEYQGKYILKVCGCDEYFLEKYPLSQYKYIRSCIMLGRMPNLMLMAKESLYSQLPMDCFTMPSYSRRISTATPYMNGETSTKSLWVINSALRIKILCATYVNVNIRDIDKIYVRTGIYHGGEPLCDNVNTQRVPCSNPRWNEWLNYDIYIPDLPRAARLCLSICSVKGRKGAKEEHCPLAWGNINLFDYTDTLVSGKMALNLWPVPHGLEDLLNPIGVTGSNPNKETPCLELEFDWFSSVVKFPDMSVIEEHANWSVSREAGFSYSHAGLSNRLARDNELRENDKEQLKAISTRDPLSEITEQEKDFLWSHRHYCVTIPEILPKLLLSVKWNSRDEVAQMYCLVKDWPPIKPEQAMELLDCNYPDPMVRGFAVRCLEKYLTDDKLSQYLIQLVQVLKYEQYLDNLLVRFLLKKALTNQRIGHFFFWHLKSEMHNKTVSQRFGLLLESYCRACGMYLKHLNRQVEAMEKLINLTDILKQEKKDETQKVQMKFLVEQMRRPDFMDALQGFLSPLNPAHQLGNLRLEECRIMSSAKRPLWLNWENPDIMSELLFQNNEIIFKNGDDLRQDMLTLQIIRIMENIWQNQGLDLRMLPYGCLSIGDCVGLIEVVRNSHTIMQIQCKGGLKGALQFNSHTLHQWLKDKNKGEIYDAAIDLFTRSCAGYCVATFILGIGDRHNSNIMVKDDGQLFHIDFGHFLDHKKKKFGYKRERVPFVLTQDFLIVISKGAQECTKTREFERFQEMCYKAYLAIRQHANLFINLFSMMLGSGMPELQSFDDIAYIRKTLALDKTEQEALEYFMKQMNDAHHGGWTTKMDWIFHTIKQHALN

CNC(=O)[C@@H]1CCCN1c1cc2c(cn1)-c1nc(-c3ncnn3C(C)C)cn1CCO2
Ki: 0.03 µM

CC(C)n1ncnc1-c1cn2c(n1)-c1cnc(N3CCC[C@@H]3C(N)=O)cc1OCC2
Ki: 0.0032 µM
